Measured values from the supplement of paper PMC6470124.

Tests used:
[1] = absolute recovery over vacuum-assisted evaporative concentration; higher = better recovery; settings: enrichment method: VEC
In short: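 Water samples (influent 6 mL, effluent 15 mL, surface and nanopure water 60 mL) were spiked with standards before concentration, after concentration or not at all, at 200 ng/L (nanopure/surface) or 1000 ng/L (wastewater), with class- and compound-specific adjustments. They were evaporated at 55 °C and 20 mbar to about 0.3 mL, brought to 0.4 mL and centrifuged. Internal standards were added afterwards and samples were analysed by LC-HRMS/MS. Absolute recovery was (response ratio pre − unspiked)/(post − unspiked) × 100, using averages of ≥ 2 replicates.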

[2] = absolute recovery over mixed-bed multilayer solid-phase extraction; higher = better recovery; settings: enrichment method: SPE
In short: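 Absolute recovery rests on background-corrected response ratios of pre- versus post-spiked samples, averaged over at least two replicates. Wastewater (100–250 mL, pH 6.5, glass-fibre filtered) was spiked at 1000 ng/L and unfiltered nanopure water (1000 mL) at 200 ng/L, before or after three-layer mixed-bed cartridge extraction or not at all, with exceptions for some classes. Analysis after internal standard addition used liquid chromatography with high-resolution tandem mass spectrometry in both ionisation modes.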

[3] = LC retention time (Atlantis T3, 5-95% MeOH gradient, 0.1% formic acid); higher = more retained / less polar
In short: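 Retention times were recorded for reference standards (purity ≥ 95%) on a polar reversed-phase C18 column (Atlantis T3, 3 × 150 mm, 3 μm) at 0.3 mL/min. Elution used water and methanol, each with 0.1% formic acid, in a gradient from 5 to 95% methanol over 17.5 min. Detection was by high-resolution tandem mass spectrometry on a QExactive Plus, with positive and negative electrospray in separate runs. Peaks were found and integrated in TraceFinder (5 ppm tolerance, at least three points per peak) and then checked by hand.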

Row | SMILES | absolute recovery ([1]; wastewater effluent) [%] | absolute recovery ([1]; wastewater influent) [%] | absolute recovery ([2]; nanopure water) [%] | absolute recovery ([2]; wastewater effluent) [%] | absolute recovery ([2]; wastewater influent) [%] | LC retention time [3] [min] | absolute recovery ([2]; surface water) [%]
1 | NS(=O)(=O)c1cc(C(=O)[O-])c(NCc2ccco2)cc1Cl [Furosemid] | 101 | 97.9 | 77.3 | 78.8 | 87.3 | 16.2 | –
2 | COc1nc(C)nc(N)n1 [2-Amino-4-methoxy-6-methyl-1-3-5-triazin] | 101 | 106 | 102 | 102 | 102 | 9.03 | 112
3 | COc1ccc(C(=CC(=O)N2CCOCC2)c2ccc(Cl)cc2)cc1OC [Dimethomorph] | 116 | 95.7 | 98.4 | 81.4 | 91.4 | 19.5 | 81.4
4 | CC(O)(CS(=O)(=O)c1ccc(F)cc1)C(=O)Nc1ccc(C#N)c(C(F)(F)F)c1 (stereo unspecified) [Bicalutamid] | – | 102 | 100 | 94.3 | 95.2 | 18.6 | 97
5 | Cc1nc(N(C)C)nc(OC(=O)N(C)C)c1C [Pirimicarb] | 102 | 98.7 | 99.4 | 93.5 | 94.1 | 14.1 | 94.3
6 | COC=C(C(=O)OC)c1ccccc1COc1cccc(C(F)(F)F)n1 [Picoxystrobin] | 94.2 | 121 | 94.1 | 99.7 | 81.3 | 20.3 | 94.9
7 | COc1cccc(C(=O)NN(C(=O)c2cc(C)cc(C)c2)C(C)(C)C)c1C [Methoxyfenozid] | 104 | 98.9 | 104 | 98.1 | 94.8 | 19.7 | 103
8 | O=C1NC(=O)C(c2ccccc2)(c2ccccc2)N1 [Phenytoin] | 98.4 | 112 | 90.8 | – | – | 17 | –
9 | Cc1cncc(C(=O)[O-])c1 [5-Methylpyridine-3-carboxylic-acid] | 94.9 | 141 | 109 | 90.9 | 100 | 6.89 | 34.2
10 | CCCCOc1ccc(OCCC[NH+]2CCOCC2)cc1 [Pramoxine] | 105 | 91 | 87.7 | 89.4 | 84 | 15.1 | 95.3
11 | COC(=O)Nc1nc2ccccc2[nH]1 [Carbendazim] | 105 | 103 | 96.1 | 93.2 | 94.1 | 10.8 | 94.3
12 | CCOC(=O)C1=NOC(c2ccccc2)(c2ccccc2)C1 [Isoxadifen-ethyl] | 26.4 | – | 82.7 | 103 | 62.5 | 20.6 | 93.3
13 | CCCC(CCC)(C(=O)[O-])C(=O)O [Dipropylmalonic-acid] | 103 | 109 | 94.4 | 94.7 | 87.9 | 18.2 | 88.7
14 | CCOCCN(C(=O)CCl)C(=C(C)C)c1ccccc1 [Pethoxamid] | 87.2 | 92.5 | 95.5 | 86.7 | 99.6 | 20.3 | 85.7
15 | O=C(Cc1ccccc1)NC(=NOCC1CC1)c1c(C(F)(F)F)ccc(F)c1F [Cyflufenamid] | 95.4 | 117 | 91.9 | 106 | 84.3 | 20.9 | 106
16 | COCCc1ccc(OCC(O)C[NH2+]C(C)C)cc1 (stereo unspecified) [Metoprolol] | 107 | 102 | 94.8 | 93.3 | 89.5 | 12.3 | 93.1
17 | Cc1cc(C)nc(NC(=O)[N-]S(=O)(=O)c2ccccc2C(=O)OC2COC2)n1 [Oxasulfuron] | 111 | 103 | 107 | 93 | 83.6 | 16.5 | 93.3
18 | CC(C1CC1)C(O)(Cn1cncn1)c1ccc(Cl)cc1 (stereo unspecified) [Cyproconazol] | 92.9 | 95.8 | 99.4 | 87.6 | 93.5 | 20.1 | 88.2
19 | CC(C)N1C(=O)c2ccccc2[N-]S1(=O)=O [Bentazon] | 105 | 101 | 97.3 | – | 93.1 | 17.8 | 97.5
20 | CNC(=O)Nc1ccc(Cl)c(Cl)c1 [Diuron-desmonomethyl (=DCPMU)] | 105 | 106 | 99.4 | 102 | 86.1 | 18.6 | 112
21 | O=c1[nH]c2c(c(=O)n1C1CCCCC1)CCC2 [Lenacil] | 102 | 103 | 93.2 | 92 | 92.4 | 18.6 | 87.6
22 | c1ccc(CN2CC[NH2+]CC2)cc1 [1-Benzylpiperazin] | 109 | 140 | 58.2 | 56.2 | 72.5 | 6.45 | 60.9
23 | CC12CCC(=O)C=C1CCC1C2C(=O)CC2(C)C1CCC2(O)C(=O)CO (stereo unspecified) [Cortison] | 99.8 | 54.6 | 74.9 | 74.8 | 95.2 | 17.5 | 75.6
24 | COCCN(C(=O)C(=O)[O-])c1c(C)cccc1C [Dimethachlor-OXA] | 109 | 107 | 96.8 | 92.8 | 87.9 | 18.2 | 88
